Values after ≈ are worked out from the molar mass of the structure shown.
Experiments:
Assay in all cases: Agar dilution MIC
S. aureus ATCC 43300 = format: cell-based, Staphylococcus aureus; settings: Staphylococcus aureus, ATCC43300, 35° C., 16-20 hours, read-out: Antimicrobial Screening (MIC)
Procedure: (§1) Briefly, the compounds of invention were weighed, dissolved in dimethyl sulfoxide, serially two fold diluted in the same solvent and then incorporated into molten Mueller Hinton Agar (MHA) in a petridish just before solidification, with each petridish containing a different concentration of a compound.
(§2) The bacterial inoculum was prepared by picking 3 to 5 well isolated bacterial colonies with the same morphological appearance from an 18-24 hours old culture with an inoculating loop, transferring the growth to a tube containing 3 mL of normal saline and adjusting the turbidity of the saline suspension to 0.5 Mc Farland Turbidity Standard equivalent to a bacterial population of 1.5×10^8 colony forming units (CFU) per mL of suspension. The suspension was diluted 1:10 in saline (i.e. 0.5 mL suspension 4.5 mL saline) to get a bacterial population of 1.5×10^7 CFU/mL as inoculum.
(§3) The inoculated petridishes were incubated at 35° C. in an ambient atmosphere for 16-20 hours.

S. aureus ATCC 29213 = format: cell-based, Staphylococcus aureus; settings: Staphylococcus aureus, ATCC29213, 35° C., 16-20 hours, read-out: Antimicrobial Screening (MIC)
Procedure: as §1, §2, §3

S. aureus MRO 00055 = format: cell-based, Staphylococcus aureus; settings: Staphylococcus aureus, MRO00055, 35° C., 16-20 hours, read-out: Antimicrobial Screening (MIC)
Procedure: as §1, §2, §3

S. aureus MRO 002053 = format: cell-based, Staphylococcus aureus; settings: Staphylococcus aureus, MRO002053, 35° C., 16-20 hours, read-out: Antimicrobial Screening (MIC)
Procedure: as §1, §2, §3

S. aureus MRO 00013 = format: cell-based, Staphylococcus aureus; settings: Staphylococcus aureus, MRO00013, 35° C., 16-20 hours, read-out: Antimicrobial Screening (MIC)
Procedure: as §1, §2, §3

S. aureus MRO 00059 = format: cell-based, Staphylococcus aureus; settings: Staphylococcus aureus, MRO00059, 35° C., 16-20 hours, read-out: Antimicrobial Screening (MIC)
Procedure: as §1, §2, §3

S. aureus MRO 00048 = format: cell-based, Staphylococcus aureus; settings: Staphylococcus aureus, MRO00048, 35° C., 16-20 hours, read-out: Antimicrobial Screening (MIC)
Procedure: as §1, §2, §3

S. aureus MRO 0003 = format: cell-based, Staphylococcus aureus; settings: Staphylococcus aureus, MRO0003, 35° C., 16-20 hours, read-out: Antimicrobial Screening (MIC)
Procedure: as §1, §2, §3

S. aureus MRO 00030 = format: cell-based, Staphylococcus aureus; settings: Staphylococcus aureus, MRO00030, 35° C., 16-20 hours, read-out: Antimicrobial Screening (MIC)
Procedure: as §1, §2, §3

S. aureus MRO 0001 = format: cell-based, Staphylococcus aureus; settings: Staphylococcus aureus, MRO0001, 35° C., 16-20 hours, read-out: Antimicrobial Screening (MIC)
Procedure: as §1, §2, §3

[1] = tested on: S. haemolyticus MRO 02064; format: cell-based; settings: Staphylococcus haemolyticus, MRO02064, 35° C., 16-20 hours, read-out: Antimicrobial Screening (MIC)
Procedure: as §1, §2, §3

[2] = tested on: S. saprophyticus MRO 02003; format: cell-based; settings: Staphylococcus saprophyticus, MRO02003, 35° C., 16-20 hours, read-out: Antimicrobial Screening (MIC)
Procedure: as §1, §2, §3

[3] = tested on: S. epidermidis MRO 002046; format: cell-based; settings: Staphylococcus epidermidis, MRO002046, 35° C., 16-20 hours, read-out: Antimicrobial Screening (MIC)
Procedure: as §1, §2, §3

S. epidermidis MRO 02095 = format: cell-based; settings: Staphylococcus epidermidis, MRO02095, 35° C., 16-20 hours, read-out: Antimicrobial Screening (MIC)
Procedure: as §1, §2, §3

S. epidermidis MRO 02002 = format: cell-based; settings: Staphylococcus epidermidis, MRO02002, 35° C., 16-20 hours, read-out: Antimicrobial Screening (MIC)
Procedure: as §1, §2, §3

S. epidermidis MRO 02045 = format: cell-based; settings: Staphylococcus epidermidis, MRO02045, 35° C., 16-20 hours, read-out: Antimicrobial Screening (MIC)
Procedure: as §1, §2, §3

E. faecalis ATCC 29212 = format: cell-based, Enterococcus faecalis; settings: Enterococcus faecalis, ATCC29212, 35° C., 16-20 hours, read-out: Antimicrobial Screening (MIC)
Procedure: as §1, §2, §3

E. faecalis MRO 04205 = format: cell-based, Enterococcus faecalis; settings: Enterococcus faecalis, MRO04205, 35° C., 16-20 hours, read-out: Antimicrobial Screening (MIC)
Procedure: as §1, §2, §3

E. faecalis MRO 04050 = format: cell-based, Enterococcus faecalis; settings: Enterococcus faecalis, MRO04050, 35° C., 16-20 hours, read-out: Antimicrobial Screening (MIC)
Procedure: as §1, §2, §3

E. faecalis MRO 04035 = format: cell-based, Enterococcus faecalis; settings: Enterococcus faecalis, MRO04035, 35° C., 16-20 hours, read-out: Antimicrobial Screening (MIC)
Procedure: as §1, §2, §3

E. faecalis ATCC 51299 = format: cell-based, Enterococcus faecalis; settings: Enterococcus faecalis, ATCC51299, 35° C., 16-20 hours, read-out: Antimicrobial Screening (MIC)
Procedure: as §1, §2, §3

[4] = tested on: M. catarrhalis ATCC 43628; format: cell-based, Moraxella catarrhalis; settings: Moraxella catarrhalis, ATCC43628, 35° C., 16-20 hours, read-out: Antimicrobial Screening (MIC)
Procedure: as §1, §2, §3

[5] = tested on: M. catarrhalis ATCC 43627; format: cell-based, Moraxella catarrhalis; settings: Moraxella catarrhalis, ATCC43627, 35° C., 16-20 hours, read-out: Antimicrobial Screening (MIC)
Procedure: as §1, §2, §3

[6] = tested on: M. catarrhalis ATCC 43617; format: cell-based, Moraxella catarrhalis; settings: Moraxella catarrhalis, ATCC43617, 35° C., 16-20 hours, read-out: Antimicrobial Screening (MIC)
Procedure: as §1, §2, §3

E. faecium MRO 04038 = format: cell-based, Enterococcus faecium; settings: Enterococcus faecium, MRO04038, 35° C., 16-20 hours, read-out: Antimicrobial Screening (MIC)
Procedure: as §1, §2, §3

E. faecium MRO 04037 = format: cell-based, Enterococcus faecium; settings: Enterococcus faecium, MRO04037, 35° C., 16-20 hours, read-out: Antimicrobial Screening (MIC)
Procedure: as §1, §2, §3

E. faecium MRO 04198 = format: cell-based, Enterococcus faecium; settings: Enterococcus faecium, MRO04198, 35° C., 16-20 hours, read-out: Antimicrobial Screening (MIC)
Procedure: as §1, §2, §3

E. faecium ATCC 700221 = format: cell-based, Enterococcus faecium; settings: Enterococcus faecium, ATCC700221, 35° C., 16-20 hours, read-out: Antimicrobial Screening (MIC)
Procedure: as §1, §2, §3

MIC (S. aureus ATCC 43300) [µg/mL] | MIC (S. aureus ATCC 29213) [µg/mL] | MIC (S. aureus MRO 00055) [µg/mL] | MIC (S. aureus MRO 002053) [µg/mL] | MIC (S. aureus MRO 00013) [µg/mL] | MIC (S. aureus MRO 00059) [µg/mL] | MIC (S. aureus MRO 00048) [µg/mL] | MIC (S. aureus MRO 0003) [µg/mL] | MIC (S. aureus MRO 00030) [µg/mL] | MIC (S. aureus MRO 0001) [µg/mL] | MIC [2] [µg/mL] | MIC [3] [µg/mL] | MIC (S. epidermidis MRO 02095) [µg/mL] | MIC (S. epidermidis MRO 02002) [µg/mL] | MIC (S. epidermidis MRO 02045) [µg/mL] | MIC (E. faecalis ATCC 29212) [µg/mL] | MIC (E. faecalis MRO 04205) [µg/mL] | MIC (E. faecalis MRO 04050) [µg/mL] | MIC (E. faecalis MRO 04035) [µg/mL] | SMILES | MIC [1] [µg/mL] | other results
1 (≈ 2.09 µM) | 1 (≈ 2.09 µM) | 1 (≈ 2.09 µM) | 0.5 (≈ 1.04 µM) | 1 (≈ 2.09 µM) | 0.5 (≈ 1.04 µM) | 0.5 (≈ 1.04 µM) | 1 (≈ 2.09 µM) | 0.5 (≈ 1.04 µM) | 0.5 (≈ 1.04 µM) | 1 (≈ 2.09 µM) | 0.5 (≈ 1.04 µM) | 0.5 (≈ 1.04 µM) | 0.5 (≈ 1.04 µM) | 0.5 (≈ 1.04 µM) | 0.5 (≈ 1.04 µM) | 0.5 (≈ 1.04 µM) | 0.5 (≈ 1.04 µM) | 0.5 (≈ 1.04 µM) | COC(=S)NC[C@H]1CN(c2ccc(N3CCN(C(=O)Cn4cnnn4)CC3)c(F)c2)C(=O)O1 [Example 72, (S)—O-Methyl (3-(4-(4-(2-(1H-tetrazol-1-yl)acetyl)piperazin-1-yl)-3-fluorophenyl)-2-oxooxazolidin-5-yl)methylcarbamothioate] | 0.5 (≈ 1.04 µM) | MIC (E. faecalis ATCC 51299): 0.5 µg/mL (≈ 1.04 µM); MIC [4]: 2 µg/mL (≈ 4.18 µM); MIC [5]: 2 µg/mL (≈ 4.18 µM); MIC [6]: 2 µg/mL (≈ 4.18 µM); MIC (E. faecium MRO 04038): 0.5 µg/mL (≈ 1.04 µM); MIC (E. faecium MRO 04037): 0.5 µg/mL (≈ 1.04 µM); MIC (E. faecium MRO 04198): 0.5 µg/mL (≈ 1.04 µM); MIC (E. faecium ATCC 700221): 0.5 µg/mL (≈ 1.04 µM)
0.5 (≈ 0.968 µM) | 1 (≈ 1.94 µM) | 1 (≈ 1.94 µM) | 1 (≈ 1.94 µM) | 1 (≈ 1.94 µM) | 0.5 (≈ 0.968 µM) | 0.5 (≈ 0.968 µM) | 1 (≈ 1.94 µM) | 1 (≈ 1.94 µM) | 0.5 (≈ 0.968 µM) | 1 (≈ 1.94 µM) | 1 (≈ 1.94 µM) | 1 (≈ 1.94 µM) | 1 (≈ 1.94 µM) | 1 (≈ 1.94 µM) | 0.5 (≈ 0.968 µM) | 0.5 (≈ 0.968 µM) | 0.5 (≈ 0.968 µM) | 0.5 (≈ 0.968 µM) | COC(=S)NC[C@H]1CN(c2ccc(N3CCN(C(=O)COCc4ccccc4)CC3)c(F)c2)C(=O)O1 [Example 45, (S)—O-Methyl (3-(4-(4-(2-(benzyloxy)acetyl)piperazin-1-yl)-3-fluorophenyl)-2-oxooxazolidin-5-yl)methylcarbamothioate] | 0.5 (≈ 0.968 µM) | MIC (E. faecalis ATCC 51299): 0.5 µg/mL (≈ 0.968 µM); MIC [4]: 1 µg/mL (≈ 1.94 µM); MIC [5]: 2 µg/mL (≈ 3.87 µM); MIC [6]: 0.5 µg/mL (≈ 0.968 µM); MIC (E. faecium MRO 04038): 0.5 µg/mL (≈ 0.968 µM); MIC (E. faecium MRO 04037): 0.5 µg/mL (≈ 0.968 µM); MIC (E. faecium MRO 04198): 0.5 µg/mL (≈ 0.968 µM); MIC (E. faecium ATCC 700221): 0.5 µg/mL (≈ 0.968 µM)

— US20100234390A1, “NOVEL COMPOUND AND THEIR USE” (priority 2007, published 2010)
